In ChEMBL document CHEMBL1909046, “DrugMatrix in vitro pharmacology data”:

How the values were obtained:
[1] = DRUGMATRIX: Sodium/nucleoside co-transporter radioligand binding (ligand: nitrobenzylthioinosine); format: cell membranes, Cavia porcellus, Dunkin-Hartley, Cerebral cortex, Membrane; conditions: Not Active = under 50% inhibition at 10 µM
[2] = biological target: T1, Substance-K receptor (Homo sapiens, UniProt P21452); format: cell membranes, CHO, Membrane; conditions: cho; further: in other assays of this panel Not Active means under 50% inhibition at 10 µM
T1 sequence (P21452 whole entry): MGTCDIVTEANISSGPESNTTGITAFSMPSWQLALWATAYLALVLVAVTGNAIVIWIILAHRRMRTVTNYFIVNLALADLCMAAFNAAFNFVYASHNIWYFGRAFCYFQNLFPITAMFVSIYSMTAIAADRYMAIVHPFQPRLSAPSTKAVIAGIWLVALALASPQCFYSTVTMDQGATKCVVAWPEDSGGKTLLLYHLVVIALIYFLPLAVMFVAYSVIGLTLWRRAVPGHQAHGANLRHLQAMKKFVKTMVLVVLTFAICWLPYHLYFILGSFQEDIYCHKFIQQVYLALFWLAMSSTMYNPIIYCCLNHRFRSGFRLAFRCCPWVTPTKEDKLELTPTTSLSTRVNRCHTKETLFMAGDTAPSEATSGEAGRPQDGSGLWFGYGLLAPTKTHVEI

[3] = biological target: T2, C-X-C chemokine receptor type 2 (Homo sapiens, UniProt P25025); format: cell membranes, CHO-K1, Membrane; conditions: cho-k1; further: in other assays of this panel Not Active means under 50% inhibition at 10 µM
T2 sequence (P25025 whole entry): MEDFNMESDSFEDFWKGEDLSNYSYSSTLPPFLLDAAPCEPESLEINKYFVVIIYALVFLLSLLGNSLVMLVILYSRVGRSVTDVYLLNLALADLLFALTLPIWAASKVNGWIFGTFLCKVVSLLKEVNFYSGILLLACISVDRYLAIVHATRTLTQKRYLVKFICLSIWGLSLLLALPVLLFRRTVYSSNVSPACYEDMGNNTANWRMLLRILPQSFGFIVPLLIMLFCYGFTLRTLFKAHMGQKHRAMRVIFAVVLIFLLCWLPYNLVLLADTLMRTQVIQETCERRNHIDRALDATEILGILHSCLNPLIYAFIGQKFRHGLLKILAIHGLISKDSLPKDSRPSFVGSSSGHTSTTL

[4] = DRUGMATRIX: Glutamate, NMDA, Agonism radioligand binding (ligand: [3H] CGP-39653); format: cell membranes, Rattus norvegicus, Wistar, Cerebral cortex, Membrane; conditions: Not Active = under 50% inhibition at 10 µM
[5] = biological target: T3, Nitric oxide synthase, inducible (Mus musculus, UniProt P29477); design: species or system Escherichia coli;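 further: inhibition of iNOS enzyme activity measured with L-arginine as substrate; in other assays of this panel Not Active means under 50% inhibition at 10 µM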
T3 sequence (P29477 whole entry): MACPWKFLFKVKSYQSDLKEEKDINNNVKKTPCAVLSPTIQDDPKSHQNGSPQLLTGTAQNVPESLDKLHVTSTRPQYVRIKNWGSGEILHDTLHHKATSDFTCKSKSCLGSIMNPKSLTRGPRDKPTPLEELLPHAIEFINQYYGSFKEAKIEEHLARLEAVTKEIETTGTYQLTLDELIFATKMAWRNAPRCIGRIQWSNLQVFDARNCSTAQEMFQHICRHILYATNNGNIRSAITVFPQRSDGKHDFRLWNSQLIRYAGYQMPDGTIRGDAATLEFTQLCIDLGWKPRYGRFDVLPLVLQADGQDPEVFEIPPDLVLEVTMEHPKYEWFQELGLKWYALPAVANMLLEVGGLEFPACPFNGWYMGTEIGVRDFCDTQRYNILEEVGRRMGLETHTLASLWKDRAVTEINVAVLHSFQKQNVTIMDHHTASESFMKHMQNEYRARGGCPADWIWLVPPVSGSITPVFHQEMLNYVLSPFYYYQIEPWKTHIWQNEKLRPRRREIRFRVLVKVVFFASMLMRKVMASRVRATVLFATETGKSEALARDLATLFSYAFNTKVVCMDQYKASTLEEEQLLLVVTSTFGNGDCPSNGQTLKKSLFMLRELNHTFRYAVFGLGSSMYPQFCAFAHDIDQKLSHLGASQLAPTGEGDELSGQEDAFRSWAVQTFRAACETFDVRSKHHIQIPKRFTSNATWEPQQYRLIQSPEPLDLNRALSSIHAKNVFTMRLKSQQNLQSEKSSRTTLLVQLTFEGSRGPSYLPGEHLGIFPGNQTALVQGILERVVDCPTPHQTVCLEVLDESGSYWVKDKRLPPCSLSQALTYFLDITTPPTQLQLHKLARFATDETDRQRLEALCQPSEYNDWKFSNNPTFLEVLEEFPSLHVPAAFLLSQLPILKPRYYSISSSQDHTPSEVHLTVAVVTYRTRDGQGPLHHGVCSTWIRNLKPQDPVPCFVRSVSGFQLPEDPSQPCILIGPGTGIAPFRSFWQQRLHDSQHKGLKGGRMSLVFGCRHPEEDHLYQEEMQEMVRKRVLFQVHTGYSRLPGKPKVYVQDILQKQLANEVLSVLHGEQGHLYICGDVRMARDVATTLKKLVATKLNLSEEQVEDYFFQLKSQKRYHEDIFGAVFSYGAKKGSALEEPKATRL

[6] = DRUGMATRIX: Purinergic P2X radioligand binding (ligand: [3H] alpha, beta-Methylene-ATP); format: cell membranes, Oryctolagus cuniculus, New Zealand albino, Urinary bladder, Membrane; conditions: Not Active = under 50% inhibition at 10 µM

C[C@]12CCC(=O)C[C@@H]1CC[C@@H]1[C@@H]2CC[C@]2(C)[C@@H](O)CC[C@@H]12 [STANOLONE]
Not Active: IC50 [1] | Ki [1] | IC50 [2] | IC50 [3] | IC50 [4] | Ki [4] | IC50 [5] | IC50 [6] | Ki [6]

CCN(CC)CCNC(=O)c1cc(Cl)c(N)cc1OC [METOCLOPRAMIDE]
Not Active: IC50 [1] | Ki [1] | IC50 [2] | IC50 [3] | IC50 [4] | Ki [4] | IC50 [5] | IC50 [6] | Ki [6]

COC(=O)Nc1nc2ccc(C(=O)c3ccccc3)cc2[nH]1 [MEBENDAZOLE]
Not Active: IC50 [1] | Ki [1] | IC50 [2] | IC50 [3] | IC50 [4] | Ki [4] | IC50 [5] | IC50 [6] | Ki [6]

O=[As][O-].[Na+] [SODIUM ARSENITE]
Not Active: IC50 [1] | Ki [1] | IC50 [2] | IC50 [3] | IC50 [4] | Ki [4] | IC50 [5] | IC50 [6] | Ki [6]

CS(=O)(=O)c1ccc(C2=C(c3ccccc3)C(=O)OC2)cc1 [ROFECOXIB]
Not Active: IC50 [1] | Ki [1] | IC50 [2] | IC50 [3] | IC50 [4] | Ki [4] | IC50 [5] | IC50 [6] | Ki [6]

CC1(C)[C@H](C(=O)O)N2C(=O)C[C@H]2S1(=O)=O [SULBACTAM]
Not Active: IC50 [1] | Ki [1] | IC50 [2] | IC50 [3] | IC50 [4] | Ki [4] | IC50 [5] | IC50 [6] | Ki [6]

CC(N)C12CC3CC(CC(C3)C1)C2 (stereo not drawn) [RIMANTADINE]
Not Active: IC50 [1] | Ki [1] | IC50 [2] | IC50 [3] | IC50 [4] | Ki [4] | IC50 [5] | IC50 [6] | Ki [6]

CC[C@H](C)C(=O)O[C@H]1CCC=C2C=C[C@H](C)[C@H](CC[C@@H]3C[C@@H](O)CC(=O)O3)[C@H]21 [MEVASTATIN]
Not Active: IC50 [1] | Ki [1] | IC50 [2] | IC50 [3] | IC50 [4] | Ki [4] | IC50 [5] | IC50 [6] | Ki [6]

O=C(OC[C@H]1O[C@@H](OC(=O)c2cc(O)c(O)c(OC(=O)c3cc(O)c(O)c(O)c3)c2)[C@H](OC(=O)c2cc(O)c(O)c(OC(=O)c3cc(O)c(O)c(O)c3)c2)[C@@H](OC(=O)c2cc(O)c(O)c(OC(=O)c3cc(O)c(O)c(O)c3)c2)[C@@H]1OC(=O)c1cc(O)c(O)c(OC(=O)c2cc(O)c(O)c(O)c2)c1)c1cc(O)c(O)c(OC(=O)c2cc(O)c(O)c(O)c2)c1 [TANNIC ACID]
Not Active: IC50 [1] | Ki [1] | IC50 [2] | IC50 [3] | IC50 [4] | Ki [4] | IC50 [5] | IC50 [6] | Ki [6]

LEAD(IV) ACETATE
Not Active: IC50 [1] | Ki [1] | IC50 [2] | Ki [2] | IC50 [3] | Ki [3] | IC50 [4] | Ki [4] | IC50 [5] | Ki [5] | IC50 [6] | Ki [6]

CO[C@@H]1[C@@H](OC)[C@H](C)[C@@](O)(CC(=O)O)O[C@H]1[C@H](C)[C@H]1O[C@@]2(CC[C@@](C)([C@H]3CC[C@@](C)([C@@H]4O[C@@H]([C@H]5O[C@](C)(O)[C@H](C)C[C@@H]5C)C[C@@H]4O[C@@H]4C[C@H](OC)[C@@H](OC)[C@H](C)O4)O3)O2)C[C@H](O)[C@H]1C.N [MADURAMICIN]
Not Active: IC50 [1] | Ki [1] | IC50 [2] | IC50 [3] | IC50 [4] | Ki [4] | IC50 [5] | IC50 [6] | Ki [6]

C[N+]1(C)[C@@H]2C[C@@H](OC(=O)[C@H](CO)c3ccccc3)C[C@H]1[C@@H]1O[C@@H]12.[Br-] [METHSCOPOLAMINE BROMIDE]
Not Active: IC50 [1] | Ki [1] | IC50 [2] | IC50 [3] | IC50 [4] | Ki [4] | IC50 [5] | IC50 [6] | Ki [6]

Cc1nnc(NS(=O)(=O)c2ccc(N)cc2)s1 [SULFAMETHIZOLE]
Not Active: IC50 [1] | Ki [1] | IC50 [2] | IC50 [3] | IC50 [4] | Ki [4] | IC50 [5] | IC50 [6] | Ki [6]

Cc1ccc(S(=O)(=O)NC(=O)NN2CCCCCC2)cc1 [TOLAZAMIDE]
Not Active: IC50 [1] | Ki [1] | IC50 [2] | IC50 [3] | IC50 [4] | Ki [4] | IC50 [5] | IC50 [6] | Ki [6]

CCC(C)(C)C(=O)O[C@H]1C[C@@H](C)C=C2C=C[C@H](C)[C@H](CC[C@@H]3C[C@@H](O)CC(=O)O3)[C@H]21 [SIMVASTATIN]
Not Active: IC50 [1] | Ki [1] | IC50 [2] | IC50 [3] | IC50 [4] | Ki [4] | IC50 [5] | IC50 [6] | Ki [6]

Cc1ccnc(NS(=O)(=O)c2ccc(N)cc2)n1 [SULFAMERAZINE]
Not Active: IC50 [1] | Ki [1] | IC50 [2] | IC50 [3] | IC50 [4] | Ki [4] | IC50 [5] | IC50 [6] | Ki [6]

OC[C@@H](O)[C@@H](O)[C@H](O)[C@H](O)CO [MANNITOL]
Not Active: IC50 [1] | Ki [1] | IC50 [2] | IC50 [3] | IC50 [4] | Ki [4] | IC50 [5] | IC50 [6] | Ki [6]

CCN(CC)N=O [N-NITROSODIETHYLAMINE]
Not Active: IC50 [1] | Ki [1] | IC50 [2] | IC50 [3] | IC50 [4] | Ki [4] | IC50 [5] | IC50 [6] | Ki [6]

CC(=O)O[C@]1(C(C)=O)CC[C@H]2[C@@H]3C[C@H](C)C4=CC(=O)CC[C@]4(C)[C@H]3CC[C@@]21C [MEDROXYPROGESTERONE ACETATE]
Not Active: IC50 [1] | Ki [1] | IC50 [2] | IC50 [3] | IC50 [4] | Ki [4] | IC50 [5] | IC50 [6] | Ki [6]

CCN1CCCC1CNC(=O)c1cc(S(N)(=O)=O)ccc1OC (stereo not drawn) [SULPIRIDE]
Not Active: IC50 [1] | Ki [1] | IC50 [2] | IC50 [3] | IC50 [4] | Ki [4] | IC50 [5] | IC50 [6] | Ki [6]
